Laboratory results reported in PubChem BioAssay (NCI).
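Step 1: Grow cells in 96-well plates. Step 2: Expose to compound for 48 hours at 5 concentrations. Step 3: Interpolate endpoints linearly; if unreached, use highest concentration. Here, GI50 denotes the concentration required for 50% inhibition of growth. TGI: total growth inhibition.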

How the values were obtained:
Assay in all cases: growth of human tumour cells (NCI), 48 h
[1] = test system: OVCAR-4 ovarian
[2] = test system: 786-0 renal
[3] = test system: SNB-75 CNS
[4] = test system: MDA-MB-231 breast
[5] = test system: SW-620 colon
[6] = test system: HS 578T breast
[7] = test system: OVCAR-3 ovarian
[8] = test system: DU-145 prostate
[9] = test system: HCT-15 colon
[10] = test system: SF-268 CNS
[11] = test system: SF-295 CNS
[12] = test system: OVCAR-8 ovarian
[13] = test system: HCC-2998 colon
[14] = test system: BT-549 breast
[15] = test system: NCI-H460 lung
[16] = test system: IGROV1 ovarian
[17] = test system: PC-3 prostate
[18] = test system: MDA-MB-435
[19] = test system: HOP-62 NSCLC
[20] = test system: HT29 colon
[21] = test system: CCRF-CEM leukemia
[22] = test system: UACC-257 melanoma
[23] = test system: KM12 colon
[24] = test system: NCI-H522 lung
[25] = test system: MOLT-4 leukemia
[26] = test system: NCI-H23 lung
[27] = test system: T-47D breast
[28] = test system: LOX IMVI melanoma
[29] = test system: UO-31 renal
[30] = test system: NCI/ADR-RES ovarian
[31] = test system: MCF7 breast
[32] = test system: SR leukemia
[33] = test system: OVCAR-5 ovarian
[34] = test system: UACC-62 melanoma
[35] = test system: RXF 393 renal
[36] = test system: SK-MEL-28 melanoma
[37] = test system: ACHN renal
[38] = test system: U251 CNS
[39] = test system: SK-OV-3 ovarian
[40] = test system: A549 NSCLC
[41] = test system: HCT-116 colon
[42] = test system: CAKI-1 renal
[43] = test system: HL-60(TB) leukemia
[44] = test system: MALME-3M melanoma
[45] = test system: SNB-19 CNS
[46] = test system: SK-MEL-5 melanoma
[47] = test system: RPMI-8226 leukemia
[48] = test system: K-562 leukemia
[49] = test system: M14 melanoma
[50] = test system: A498 renal
[51] = test system: SF-539 CNS
[52] = test system: HOP-92 NSCLC
[53] = test system: SN12C renal
[54] = test system: NCI-H226 lung
[55] = test system: COLO 205 colon
[56] = test system: EKVX NSCLC

Cc1nc2sc(C(=O)Nc3cccc(Cl)c3C)c(N)c2cc1C(C)O (stereo unspecified)
GI50 [1]: 3.45 µM
TGI [1]: > 68.4 µM
GI50 [2]: 0.449 µM
TGI [2]: > 49.2 µM
GI50 [3]: 0.097 µM
TGI [3]: > 42.1 µM
GI50 [4]: 0.547 µM
TGI [4]: 46.5 µM
GI50 [5]: 0.127 µM
TGI [5]: > 54.3 µM
GI50 [6]: 0.182 µM
TGI [6]: > 74.9 µM
GI50 [7]: 0.114 µM
TGI [7]: > 33.4 µM
GI50 [8]: 0.329 µM
TGI [8]: > 86.5 µM
GI50 [9]: 0.091 µM
TGI [9]: > 39.6 µM
GI50 [10]: 5.75 µM
TGI [10]: > 82.2 µM
GI50 [11]: 0.119 µM
TGI [11]: > 41.6 µM
GI50 [12]: 0.396 µM
TGI [12]: > 71.7 µM
GI50 [13]: 0.532 µM
TGI [13]: 26.3 µM
GI50 [14]: 0.475 µM
TGI [14]: > 32.3 µM
GI50 [15]: 0.237 µM
TGI [15]: > 37.2 µM
GI50 [16]: 0.414 µM
TGI [16]: > 69.6 µM
GI50 [17]: 0.286 µM
TGI [17]: > 100 µM
GI50 [18]: 0.0288 µM
TGI [18]: 0.101 µM
GI50 [19]: 0.53 µM
TGI [19]: > 100 µM
GI50 [20]: 0.112 µM
TGI [20]: 13.8 µM
GI50 [21]: 0.115 µM
TGI [21]: > 54.7 µM
GI50 [22]: 20.2 µM
TGI [22]: > 51.6 µM
GI50 [23]: 0.175 µM
TGI [23]: > 41.1 µM
GI50 [24]: 0.112 µM
TGI [24]: 5.96 µM
GI50 [25]: 0.151 µM
TGI [25]: > 42.7 µM
GI50 [26]: 0.567 µM
TGI [26]: > 56.6 µM
GI50 [27]: 0.443 µM
TGI [27]: > 100 µM
GI50 [28]: 0.274 µM
TGI [28]: > 44.1 µM
GI50 [29]: 0.61 µM
TGI [29]: 29.2 µM
GI50 [30]: 0.119 µM
TGI [30]: > 61.3 µM
GI50 [31]: 0.103 µM
TGI [31]: > 53.2 µM
GI50 [32]: 0.0418 µM
TGI [32]: > 51.7 µM
GI50 [33]: 0.7 µM
TGI [33]: > 74.8 µM
GI50 [34]: 0.0852 µM
TGI [34]: 44.9 µM
GI50 [35]: 0.189 µM
TGI [35]: 18.1 µM
GI50 [36]: 5.8 µM
TGI [36]: > 55.6 µM
GI50 [37]: 0.63 µM
TGI [37]: > 50.1 µM
GI50 [38]: 0.223 µM
TGI [38]: > 39.2 µM
GI50 [39]: 0.382 µM
TGI [39]: > 61 µM
GI50 [40]: 0.246 µM
TGI [40]: > 61.8 µM
GI50 [41]: 0.159 µM
TGI [41]: > 35.7 µM
GI50 [42]: 0.334 µM
TGI [42]: > 100 µM
GI50 [43]: 0.092 µM
GI50 [44]: 1.11 µM
TGI [44]: 37.5 µM
GI50 [45]: 0.293 µM
TGI [45]: > 100 µM
GI50 [46]: 0.26 µM
TGI [46]: 15.6 µM
GI50 [47]: 0.347 µM
TGI [47]: > 94 µM
GI50 [48]: 0.0459 µM
TGI [48]: > 38.5 µM
GI50 [49]: 0.341 µM
TGI [49]: > 100 µM
GI50 [50]: 0.0173 µM
TGI [50]: 0.544 µM
GI50 [51]: 0.181 µM
TGI [51]: 1.9 µM
GI50 [52]: 4.36 µM
TGI [52]: 53.4 µM
GI50 [53]: 0.916 µM
TGI [53]: > 47.4 µM
GI50 [54]: 2.21 µM
TGI [54]: > 80.8 µM
GI50 [55]: 0.257 µM
TGI [55]: 7.04 µM
GI50 [56]: 0.533 µM
TGI [56]: > 77 µM
